Data taken from the supplement of paper PMC11061612.

Legend:
SG3199 = compound: CC1=CN2[C@@H](C1)C=NC3=CC(=C(C=C3C2=O)OC)OCCCCCOC4=C(C=C5C(=C4)N=C[C@@H]6CC(=CN6C5=O)C)OC [SG3199]; settings: max 0.001 µM
Method in brief: (§1)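 After 24 hours at 37°C and 5% CO2 in 1536-well plates holding 7.5 μl of DMEM/F12 or RPMI with 10% FBS, cancer cell lines were dosed for 72 hours, with final DMSO typically 0.2%. Viability came from CellTiter-Glo 2.0 luminescence, scaled between the means of blank wells and DMSO wells. A non-linear mixed effects model fitted a two-parameter logistic curve to each dose response to give the single-agent IC50.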

Etoposide = compound: COc1cc([C@@H]2c3cc4c(cc3[C@@H](O[C@@H]3O[C@@H]5CO[C@@H](C)O[C@H]5[C@H](O)[C@H]3O)[C@H]3COC(=O)[C@H]23)OCO4)cc(OC)c1O [Etoposide]; settings: max 10 µM
Method in brief: as §1

Carboplatin = compound: C1CC(C1)(C(=O)[O-])C(=O)[O-].N.N.[Pt+2] [Carboplatin]; settings: max 10 µM
Method in brief: as §1

AZD4320 = compound: CN(CC[C@H](CSC1=CC=CC=C1)NC2=C(C=C(C=C2)S(=O)(=O)NC(=O)C3=CC=C(C=C3)N4CCC(CC4)[C@H](C5=CC=CC=C5C6=CC=C(C=C6)Cl)O)S(=O)(=O)C(F)(F)F)CCO [AZD4320]; settings: max 1 µM
Method in brief: as §1

Palbociclib = compound: CC(=O)c1c(C)c2cnc(Nc3ccc(N4CCNCC4)cn3)nc2n(C2CCCC2)c1=O [Palbociclib]; settings: max 10 µM
Method in brief: as §1

Savolitinib = compound: C[C@@H](c1ccc2nccn2c1)n1nnc2ncc(-c3cnn(C)c3)nc21 [Savolitinib]; settings: max 1 µM
Method in brief: as §1

Crizotinib = compound: C[C@@H](Oc1cc(-c2cnn(C3CCNCC3)c2)cnc1N)c1c(Cl)ccc(F)c1Cl [Crizotinib]; settings: max 10 µM
Method in brief: as §1

Alisertib = compound: COc1cc(Nc2ncc3c(n2)-c2ccc(Cl)cc2C(c2c(F)cccc2OC)=NC3)ccc1C(=O)O [Alisertib]; settings: max 10 µM
Method in brief: as §1

AZD5991 = compound: Cc1c2c(nn1C)CSCc1cc(n(C)n1)CSc1cc(c3ccccc3c1)OCCCc1c(C(=O)O)n(C)c3c-2c(Cl)ccc13 [AZD5991]; settings: max 1 µM
Method in brief: as §1

Olaparib = compound: O=C(c1cc(Cc2n[nH]c(=O)c3ccccc23)ccc1F)N1CCN(C(=O)C2CC2)CC1 [Olaparib]; settings: max 10 µM
Method in brief: as §1

Taselisib = compound: Cc1nc(-c2cn3c(n2)-c2ccc(-c4cnn(C(C)(C)C(N)=O)c4)cc2OCC3)n(C(C)C)n1 [Taselisib]; settings: max 10 µM
Method in brief: as §1

Venetoclax = compound: CC1(C)CCC(CN2CCN(c3ccc(C(=O)NS(=O)(=O)c4ccc(NCC5CCOCC5)c([N+](=O)[O-])c4)c(Oc4cnc5[nH]ccc5c4)c3)CC2)=C(c2ccc(Cl)cc2)C1 [Venetoclax]; settings: max 1 µM
Method in brief: as §1

AZD5363 = compound: C1CN(CCC1(C(=O)N[C@@H](CCO)C2=CC=C(C=C2)Cl)N)C3=NC=NC4=C3C=CN4 [AZD5363]; settings: max 10 µM
Method in brief: as §1

AZD8186 = compound: C[C@@H](Nc1cc(F)cc(F)c1)c1cc(C(=O)N(C)C)cc2c(=O)cc(N3CCOCC3)oc12 [AZD8186]; settings: max 10 µM
Method in brief: as §1

AZD0156 = compound: CN(C)CCCOc1ccc(-c2ccc3ncc4c(c3c2)n(C2CCOCC2)c(=O)n4C)cn1 [AZD0156]; settings: max 3 µM
Method in brief: as §1

AZD5153 = compound: COc1nnc2ccc(N3CCC(c4ccc(OCCN5CCN(C)C(=O)[C@H]5C)cc4)CC3)nn12 [AZD5153]; settings: max 1 µM
Method in brief: as §1

Lapatinib = compound: CS(=O)(=O)CCNCc1ccc(-c2ccc3ncnc(Nc4ccc(OCc5cccc(F)c5)c(Cl)c4)c3c2)o1 [Lapatinib]; settings: max 10 µM
Method in brief: as §1

Paclitaxel = compound: CC(=O)O[C@H]1C(=O)[C@@]2(C)[C@H]([C@H](OC(=O)c3ccccc3)[C@]3(O)C[C@H](OC(=O)[C@H](O)[C@@H](NC(=O)c4ccccc4)c4ccccc4)C(C)=C1C3(C)C)[C@]1(OC(C)=O)CO[C@@H]1C[C@@H]2O [Paclitaxel]; settings: max 3 µM
Method in brief: as §1

SRA737 = compound: N#Cc1cnc(Nc2cc(NC[C@H]3CNCCO3)c(C(F)(F)F)cn2)cn1 [SRA737]; settings: max 10 µM
Method in brief: as §1

Doxorubicin = compound: COc1cccc2c1C(=O)c1c(O)c3c(c(O)c1C2=O)C[C@@](O)(C(=O)CO)C[C@@H]3O[C@H]1C[C@H](N)[C@H](O)[C@H](C)O1 [Doxorubicin]; settings: max 1 µM
Method in brief: as §1

Trametinib = compound: CC(=O)Nc1cccc(-n2c(=O)n(C3CC3)c(=O)c3c(Nc4ccc(I)cc4F)n(C)c(=O)c(C)c32)c1 [Trametinib]; settings: max 1 µM
Method in brief: as §1

AZD1390 = compound: CC(C)n1c(=O)n(C)c2cnc3cc(F)c(-c4ccc(OCCCN5CCCCC5)nc4)cc3c21 [AZD1390]; settings: max 0.3 µM
Method in brief: as §1

AZD6738 = compound: C[C@@H]1COCCN1C2=NC(=NC(=C2)C3(CC3)[S@](=N)(=O)C)C4=C5C=CNC5=NC=C4 [AZD6738]; settings: max 10 µM
Method in brief: as §1

Gemcitabine = compound: Nc1ccn([C@@H]2O[C@H](CO)[C@@H](O)C2(F)F)c(=O)n1 [Gemcitabine]; settings: max 0.3 µM
Method in brief: as §1

[1] = compound: O=C(Nc1ccc2[nH]nc(-c3ccncc3)c2c1)[C@@H]1CCN(CC(=O)N2CCN(c3ccc(-c4ncccn4)cc3)CC2)C1; settings: max 5 µM
Method in brief: as §1

MK-2206 = compound: NC1(c2ccc(-c3nc4ccn5c(=O)[nH]nc5c4cc3-c3ccccc3)cc2)CCC1 [MK-2206]; settings: max 10 µM
Method in brief: as §1

SN-38 = compound: CCc1c2c(nc3ccc(O)cc13)-c1cc3c(c(=O)n1C2)COC(=O)[C@]3(O)CC [SN-38]; settings: max 0.3 µM
Method in brief: as §1

AZD7648 = compound: Cc1cc2ncnn2cc1Nc1ncc2c(n1)n(C1CCOCC1)c(=O)n2C [AZD7648]; settings: max 10 µM
Method in brief: as §1

Gefitinib = compound: COc1cc2ncnc(Nc3ccc(F)c(Cl)c3)c2cc1OCCCN1CCOCC1 [Gefitinib]; settings: max 10 µM
Method in brief: as §1

AZD1775 = compound: C=CCn1c(=O)c2cnc(Nc3ccc(N4CCN(C)CC4)cc3)nc2n1-c1cccc(C(C)(C)O)n1 [AZD1775]; settings: max 3 µM
Method in brief: as §1

5-Fluorouracil = compound: O=c1[nH]cc(F)c(=O)[nH]1 [5-Fluorouracil]; settings: max 20 µM
Method in brief: as §1

Selumetinib = compound: Cn1cnc2c(F)c(Nc3ccc(Br)cc3Cl)c(C(=O)NOCCO)cc21 [Selumetinib]; settings: max 10 µM
Method in brief: as §1

AZD2811 = compound: CCN(CCO)CCCOc1ccc2c(Nc3cc(CC(=O)Nc4cccc(F)c4)[nH]n3)ncnc2c1 [AZD2811]; settings: max 1 µM
Method in brief: as §1

Prexasertib = compound: COc1cccc(OCCCN)c1-c1cc(Nc2cnc(C#N)cn2)n[nH]1 [Prexasertib]; settings: max 1 µM
Method in brief: as §1

Dasatinib = compound: CC1=C(C(=CC=C1)Cl)NC(=O)C2=CN=C(S2)NC3=CC(=NC(=N3)C)N4CCN(CC4)CCO [Dasatinib]; settings: max 2 µM
Method in brief: as §1

Cell Line	IC50, cell viability 72 h (SG3199) [µM]	IC50, cell viability 72 h (Etoposide) [µM]	IC50, cell viability 72 h (Carboplatin) [µM]	IC50, cell viability 72 h (AZD4320) [µM]	IC50, cell viability 72 h (Palbociclib) [µM]	IC50, cell viability 72 h (Savolitinib) [µM]	IC50, cell viability 72 h (Crizotinib) [µM]	IC50, cell viability 72 h (Alisertib) [µM]	IC50, cell viability 72 h (AZD5991) [µM]	IC50, cell viability 72 h (Olaparib) [µM]	IC50, cell viability 72 h (Taselisib) [µM]	IC50, cell viability 72 h (Venetoclax) [µM]	IC50, cell viability 72 h (AZD5363) [µM]	IC50, cell viability 72 h (AZD8186) [µM]	IC50, cell viability 72 h (AZD0156) [µM]	IC50, cell viability 72 h (AZD5153) [µM]	IC50, cell viability 72 h (Lapatinib) [µM]	IC50, cell viability 72 h (Paclitaxel) [µM]	IC50, cell viability 72 h (SRA737) [µM]	IC50, cell viability 72 h (Doxorubicin) [µM]	IC50, cell viability 72 h (Trametinib) [µM]	IC50, cell viability 72 h (AZD1390) [µM]	IC50, cell viability 72 h (AZD6738) [µM]	IC50, cell viability 72 h (Gemcitabine) [µM]	IC50, cell viability 72 h [1] [µM]	IC50, cell viability 72 h (MK-2206) [µM]	IC50, cell viability 72 h (SN-38) [µM]	IC50, cell viability 72 h (AZD7648) [µM]	IC50, cell viability 72 h (Gefitinib) [µM]	IC50, cell viability 72 h (AZD1775) [µM]	IC50, cell viability 72 h (5-Fluorouracil) [µM]	IC50, cell viability 72 h (Selumetinib) [µM]	IC50, cell viability 72 h (AZD2811) [µM]	IC50, cell viability 72 h (Prexasertib) [µM]	IC50, cell viability 72 h (Dasatinib) [µM]
KMRC-1 (Kidney Carcinoma)	> 0.001	> 10	> 10	> 1	> 10	> 1	> 10	> 10	> 1	> 10	> 10	> 1	> 10	3.16	> 3	> 1	> 10	> 3	> 10	> 1	> 1	> 0.3	> 10	0.133	> 5	> 10	> 0.3	> 10	> 10	> 3	> 20	> 10	> 1	0.588	0.711
MDA-MB-453 (Breast Carcinoma)	> 0.001	> 10	> 10	> 1	> 10	> 1	> 10	> 10	> 1	> 10	0.521	> 1	8.59	> 10	> 3	0.349	> 10	0.509	> 10	> 1	> 1	> 0.3	3.96	> 0.3	> 5	3.56	0.0682	> 10	> 10	1.51	> 20	> 10	> 1	0.0429	> 2
KGN (Other Solid Carcinomas)	> 0.001	2	> 10	> 1	2.85	> 1	4.34	1.59	> 1	> 10	2.32	> 1	> 10	3.86	> 3	0.153	> 10	0.0128	> 10	0.095	0.999	> 0.3	2.75	0.00601	> 5	> 10	0.00895	> 10	> 10	0.49	> 20	> 10	0.451	0.117	0.167
SW872 (Other Solid Carcinomas)	> 0.001	6.82	> 10	> 1	> 10	> 1	> 10	> 10	> 1	> 10	8.84	> 1	> 10	> 10	> 3	0.793	> 10	0.21	> 10	0.784	> 1	> 0.3	> 10	0.0691	> 5	> 10	0.0209	> 10	> 10	> 3	8.43	> 10	> 1	0.156	> 2
ML-2 (Acute Myeloid Leukemia)	> 0.001	0.342	> 10	0.0275	2.41	> 1	1.95	0.66	0.0626	8.05	1.53	0.118	5.95	> 10	> 3	0.116	> 10	0.00585	0.995	0.0703	0.0206	> 0.3	1.78	0.0136	0.29	> 10	0.00488	> 10	> 10	0.243	1.55	0.381	0.0209	0.00433	> 2
